According to patent publication US7205394B2, “Clathrate of azithromycin hydrate with 1,2-propyleneglycol, method for the manufacture thereof and pharmaceutical composition comprising same” (Hanmi Pharm. Co., Ltd., priority 2001, dated 2007):
Read-outs that look alike come from different tables or passages of the source. Blank lines part the entries; values can stand above or below the compound they belong to.

Legend:
[1] = prior art forms, background section, cited from earlier work
[2] = Hygroscopic properties: exposure to relative humidity, water content by Karl Fischer method; type: physicochemical; settings: for Found-Calculated (Difference, %) / Range of Difference (%) / Water content, relative humidity 25% / Water content, relative humidity 50% / Water content, relative humidity 75% / Water content, relative humidity 100%: 7 days; for Found-Calculated (Difference, %) / Range of Difference (%): relative humidity 25-100%; for Found-Calculated (Difference, %) (number in parenthesis) / Range of Difference (%) (number in parenthesis): after 3 days at the corresponding relative humidity; for Water content at onset: before exposure, 7-day series; for Water content at onset / Water content, relative humidity 25% / Water content, relative humidity 50% / Water content, relative humidity 75% / Water content, relative humidity 100%: Karl Fischer; for Water content at onset (number in parenthesis): parenthesis = 3-day series; for Water content, relative humidity 50% (number in parenthesis) / Water content, relative humidity 75% (number in parenthesis) / Water content, relative humidity 100% (number in parenthesis) / Water content, relative humidity 25% (33%) (number in parenthesis): after 3 days; for Water content, relative humidity 25% (33%) (number in parenthesis): relative humidity (33%); for Calculated water content (%): theoretical, for (1) based on m = 1.5 and n = 0.30 in formula (I)
Procedure: Also, the hygroscopic properties of each of the compound obtained in Example 1 (1), azithromycin dihydrate (2), monohydrate (3), and anhydride (4) were determined by exposing each sample to a relative humidity of each 25%, 50%, […] thereof by the Karl Fischer method.

rat = settings: oral administration in rat; cited from earlier work

Found-Calculated (Difference, %) ([2]; dihydrate): −0.4~+1.51% | Range of Difference (%) ([2]; dihydrate): 1.91% | Found-Calculated (Difference, %) (number in parenthesis) ([2]; dihydrate): (−2.1~+0.6) % | Range of Difference (%) (number in parenthesis) ([2]; dihydrate): 2.7% | Water content at onset ([2]; dihydrate): 4.58% | Water content at onset (number in parenthesis) ([2]; dihydrate): 4.1% | Water content, relative humidity 25% ([2]; dihydrate): 4.20% | Water content, relative humidity 50% ([2]; dihydrate): 4.25% | Water content, relative humidity 50% (number in parenthesis) ([2]; dihydrate): 4.6% | Water content, relative humidity 75% ([2]; dihydrate): 5.10% | Water content, relative humidity 75% (number in parenthesis) ([2]; dihydrate): 4.6% | Water content, relative humidity 100% ([2]; dihydrate): 6.11% | Water content, relative humidity 100% (number in parenthesis) ([2]; dihydrate): 5.2% | Water content, relative humidity 25% (33%) (number in parenthesis) ([2]; dihydrate): 2.5% | Calculated water content (%) ([2]; dihydrate): 4.60%
SMILES: CC[C@H]1OC(=O)[C@H](C)[C@@H](O[C@H]2C[C@@](C)(OC)[C@@H](O)[C@H](C)O2)[C@H](C)[C@@H](O[C@@H]2O[C@H](C)C[C@H](N(C)C)[C@H]2O)[C@](C)(O)C[C@@H](C)CN(C)[C@H](C)[C@@H](O)[C@]1(C)O [(2), azithromycin dihydrate]
Hygroscopic property (in words) ([1]; dihydrate): less hydroscopic than the monohydrate

Found-Calculated (Difference, %) [2]: +1.11~+7.00% | Range of Difference (%) [2]: 7.00% | Water content at onset [2]: 0.22% | Water content, relative humidity 25% [2]: 1.11% | Water content, relative humidity 50% [2]: 2.85% | Water content, relative humidity 75% [2]: 4.33% | Water content, relative humidity 100% [2]: 7.00% | Calculated water content (%) [2]: 0.00%
SMILES: CC[C@H]1OC(=O)[C@H](C)[C@@H](O[C@H]2C[C@@](C)(OC)[C@@H](O)[C@H](C)O2)[C@H](C)[C@@H](O[C@@H]2O[C@H](C)C[C@H](N(C)C)[C@H]2O)C(C)(O)C[C@H](C)CN(C)[C@H](C)[C@@H](O)[C@]1(C)O (some centres unmarked) [(4), 9-deoxo-9a-aza-9a-methyl-9a-homoerythromycin A]
Hygroscopic property (in words) [1]: highly hygroscopic

Found-Calculated (Difference, %) ([2]; monohydrate): +1~+3.94% | Range of Difference (%) ([2]; monohydrate): 3.94% | Found-Calculated (Difference, %) (number in parenthesis) ([2]; monohydrate): (−0.05~+4.84) % | Range of Difference (%) (number in parenthesis) ([2]; monohydrate): 4.9% | Water content at onset ([2]; monohydrate): 2.30% | Water content at onset (number in parenthesis) ([2]; monohydrate): 3.2% | Water content, relative humidity 25% ([2]; monohydrate): 3.35% | Water content, relative humidity 50% ([2]; monohydrate): 5.13% | Water content, relative humidity 50% (number in parenthesis) ([2]; monohydrate): 5.6% | Water content, relative humidity 75% ([2]; monohydrate): 5.41% | Water content, relative humidity 75% (number in parenthesis) ([2]; monohydrate): 6.6% | Water content, relative humidity 100% ([2]; monohydrate): 6.29% | Water content, relative humidity 100% (number in parenthesis) ([2]; monohydrate): 7.2% | Water content, relative humidity 25% (33%) (number in parenthesis) ([2]; monohydrate): 2.3% | Calculated water content (%) ([2]; monohydrate): 2.35%
SMILES: CC[C@H]1OC(=O)[C@H](C)[C@@H](O[C@H]2C[C@@](C)(OC)[C@@H](O)[C@H](C)O2)[C@H](C)[C@@H](O[C@@H]2O[C@H](C)C[C@H](N(C)C)[C@H]2O)[C@](C)(O)C[C@@H](C)CN(C)[C@H](C)[C@@H](O)[C@]1(C)O [(3), azithromycin monohydrate]

SMILES: CC(O)CO (centres unmarked) [1,2-propyleneglycol]
LD50 (rat): 25 mL/kg
